Consider 9 compounds from patent US7727998B2, “Melanin-concentrating hormone receptor antagonists containing piperidine derivatives as the active ingredient” (Banyu Pharmaceutical Co., Ltd., priority 2003, dated 2010).

In general, IC50 refers to the midpoint of a concentration-inhibition curve.

For one assay, the target named is T1, human MCH-1R (Homo sapiens, UniProt Q99705).
T1 construct: expressed in transfected cells; host or cells: CHO-K1 (American Type Culture Collection), membrane samples
T1 sequence (Q99705 whole entry): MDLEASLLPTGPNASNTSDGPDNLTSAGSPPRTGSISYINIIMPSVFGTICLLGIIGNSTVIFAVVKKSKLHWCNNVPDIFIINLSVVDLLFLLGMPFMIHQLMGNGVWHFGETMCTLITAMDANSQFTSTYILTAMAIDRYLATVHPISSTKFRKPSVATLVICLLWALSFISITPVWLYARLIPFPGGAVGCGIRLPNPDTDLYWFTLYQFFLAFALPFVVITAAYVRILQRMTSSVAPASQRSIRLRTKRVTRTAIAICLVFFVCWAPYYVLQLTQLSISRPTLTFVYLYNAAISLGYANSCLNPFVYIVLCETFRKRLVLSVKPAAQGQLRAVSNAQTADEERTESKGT
The assay is described as follows: MCH binding inhibition test.
Conditions: not given
An excerpt:
Pharmacological Test Example 1
(MCH Binding Inhibition Test)
A human MCH-1R encoding cDNA sequence [FEBS Letters, Vol. 398, p. 253 (1996); Biochimica et Biophisica Acta, Vol. 1401, p. 216 (1998)] was cloned to plasmid vector pEF/mic/cyto (Invitrogen Corporation). The obtained expression vector was transfected to a host cell CHO-K1 (American Type Culture Collection) using lipofectamine plus reagent (Life Technology Inc.) to provide MCH-1R expression cells.
Membrane samples prepared from the MCH-1R expression cells were incubated with each test compound and 50 pM of [^125I]MCH (NEN Co.), in an assay buffer (50 mM Tris buffer comprising 10 mM magnesium chloride, 2 mM ethylenediamine tetraacetate, 0.01% bacitracin and 0.2% bovine serum albumin; pH 7.4) at 25° C. for an hour, followed by filtration through Glass Filter GF/C (Wattman Co.). After washing the glass filter with 50 mM Tris buffer (pH7.4) comprising 10 mM magnesium chloride, 2 mM ethylenediamine tetraacetate and 0.04% Tween-20, radiative activity on the glass filter was measured. Non-specific binding was measured in the presence of 1 μM human MCH and 50% inhibition concentration (IC50 value) of each test compound to specific [^125] MCH binding was determined.
For the compound `O=C(NCCCN1CCC2(CC1)OCc1cc(F)ccc12)C(c1ccc(F)c(F)c1)N1CCCC1=O` (stereo not drawn) [Example 6, 2-(3,4-Difluorophenyl)-2-(2-oxo-1-pyrrolidinyl)-N-[3-(spiro[5-fluoroisobenzofuran-1(3H), 4′-piperidin]-1-yl)propyl]-acetamide], the IC50 was 5 nM.

Compound `CN(CCCN1CCC2(CC1)OCc1ccccc12)C(=O)C(c1ccc(F)c(F)c1)n1ncnn1` (stereo not drawn) [Example 28, 2-(3,4-Difluorophenyl)-N-methyl-2-(2H-1,2,3,4-tetrazol-2-yl)-N-[3-(spiro[isobenzofuran-1(3H), 4′-piperidin]-1-yl)propyl]acetamide] registered a concentration for half-maximal inhibition (IC50) of 1.9 nM.

As for `CN(CCCN1CCC2(CC1)OCc1cc(F)ccc12)C(=O)C(c1ccc(F)c(F)c1)N1CCCC1=O` (stereo not drawn) [Example 33, 2-(3,4-Difluorophenyl)-N-methyl-2-(2-oxo-1-pyrrolidinyl-N-[3-spiro[5-fluoroisobenzofuran-1(3H), 4′-piperidin]-1-yl)-propyl]acetamide], the IC50 was 1.4 nM.

Turning to `Cc1nccn1C(C(=O)N(C)CCCN1CCC2(CC1)OCc1ccc(F)cc12)c1ccc(F)c(F)c1` (stereo not drawn) [Example 43, 2-(3,4-Difluorophenyl)-N-methyl-2-(2-methyl-1H-imidazol-1-yl)-N-[3-(spiro[6-fluoroisobenzofuran-1(3H), 4′-piperidin]-1-yl)-propyl]acetamide], the IC50 stood at 0.2 nM.

As to `CN(CCCN1CCC2(CC1)OCc1cc(F)ncc12)C(=O)C(c1ccc(F)nc1)c1ccc(F)nc1` [Example 48, 2,2-Bis(6-fluoro-3-pyridinyl)-N-methyl-N-[3-(spiro[5-fluoro-6-azaisobenzofuran-1(3H), 4′-piperidin]-1-yl)propyl]-acetamide], the concentration for half-maximal inhibition (IC50) was 6.5 nM.

The assay is the same for the next values; noted with them: inhibition of specific [125I]MCH (50 pM) binding; membranes of MCH-1R expressing CHO-K1 cells; 25° C., one hour, pH 7.4; read-out: IC50.
On to `CN(CCCN1CCC2(CC1)OCc1ccccc12)C(=O)C(c1ccc(Cl)cc1)n1cccc1` (stereo not drawn) [Example 12, 2-(4-Chlorophenyl)-N-methyl-2-(1H-pyrrol-1-yl)-N-[3-(spiro-[isobenzofuran-1(3H), 4′-piperidin]-1-yl)propyl]acetamide], for which the IC50 was found to be 1 nM.

With `CN(CCCN1CCC2(CC1)OCc1ccccc12)C(=O)C(c1ccc(F)c(F)c1)n1ccnn1` (stereo not drawn) [Example 18, 2-(3,4-Difluorophenyl)-N-methyl-2-(1H-1,2,3-triazol-1-yl)-N-[3-(spiro[isobenzofuran-1(3H), 4′-piperidin]-1-yl)propyl]acetamide], the IC50 came out at 1.9 nM.

For the compound `CCC(=O)Nc1cccc(C2CCN(CCCN(C)C(=O)C(C)(C)c3ccc(F)c(F)c3)CC2)c1` [Example 60, 2-(3,4-Difluorophenyl)-2,2-dimethyl-N-methyl-N-[3-(4-(3-(propionylamino)phenyl)-1-piperidinyl)propyl]acetamide], the IC50 is 2.5 nM.

With `CCN(CCCN1CCC2(CC1)OCc1ccccc12)C(=O)C(c1ccc(F)c(F)c1)N1CCCC1=O` (stereo not drawn) [Example 67, 2-(3,4-Difluorophenyl)-N-ethyl-2-(2-oxo-1-pyrrolidinyl)-N-[3-(spiro[isobenzofuran-1(3H), 4′-piperidin]-1-yl)propyl]acetamide], the IC50 was 1 nM.
